{"source": "patent US20260355328A1", "about": "“A complex comprising a cargo and a targeting moiety binding intelectin-1” (Stichting Radboud universitair medisch centrum, priority 2022, published 2026)", "key": {"[1]": {"experiment": "Biodistribution of 111In-DOTA-labelled hLF variants after intravenous injection", "type": "in vivo, C57BI/6 mice", "conditions": "i.v., 4 hours", "experimental": "Female and male 10-12-weeks-old C57BI/6 mice (Charles River) were injected via the tail vein with 50 μl of 200 μM 111 In-DOTA-labelled hLF peptides. […] Organs were collected 4 hours after injection, and radioactivity was measured in a gamma-counter. The percentage injected dose per gram of tissue (% ID/gram) was determined for each tissue and ratios between organs were calculated."}, "HeLa cells": {"system": "HeLa cells", "experiment": "Uptake of fluorescein-labelled peptides by HeLa cells (flow cytometry)", "type": "cell-based, human", "conditions": "FIG. 1B", "experimental": "(§1) Conditionally immortalized mouse glomerular endothelial cells (mGEnC) were cultured as previously described (Rops et al. Kidney Int. 2004; 66 (6): 2193-201). HeLa cells were employed as a frequently used model cell line and were cultured in DMEM/F12 medium containing 10% fetal calf serum (FCS). For studying uptake, cells were incubated in their respective medium with 10% FCS containing fluorescein-labelled peptides at the indicated concentrations for 20 minutes at 37 °C. In some cases, cells were activated for 16 hours with 10 ng/ml mouse TNFα (Sigma), or co-incubated with Alexa Fluor 633-labeled transferrin (Invitrogen Molecular Probes). Subsequently, cells were washed with PBS and analysed using confocal laser-scanning microscopy on a TCS SP5 confocal microscope (Leica Microsystems), or detached by trypsin/EDTA and analysed on a FACSCalibur Flow cytometer (BD Biosciences) by measuring 20,000 cells."}, "mGEnC treated with TNFα": {"system": "mGEnC treated with TNFα", "experiment": "Uptake by mGEnC after activation with TNFα", "type": "cell-based", "conditions": "10 ng/ml mouse TNFα 16 hours", "experimental": "as §1\n(§2) Conditionally immortalized mouse glomerular endothelial cells (mGEnC) were cultured as previously described (Rops et al. Kidney Int. 2004; 66 (6): 2193-201). Cells were incubated in their respective medium with 10% FCS containing fluorescein-labelled peptides at 5 μM for 20 minutes at 37 °C. In some cases, cells were activated for 16 hours with 10 ng/ml mouse TNFα (Sigma), or co-incubated with 100 μg/ml Alexa Fluor 633-labeled transferrin (Invitrogen Molecular Probes). Pre-treatment with ITLN-1 or control siPool siRNA (siTools Biotech) was performed according to the manufacturer's protocol. Subsequently, cells were detached with trypsin/EDTA and analysed by flow cytometry on a FACSCalibur Flow cytometer (BD Biosciences). For immunostaining, cells or 5-μm cryosections of mouse kidney were fixed for 10 minutes with 4% paraformaldehyde, and in the indicated cases permeabilized with 0.3% Triton X-100 in PBS. Subsequently, cells and cryosections were stained for 1 hour with anti-intelectin-1 (R&D Systems) or anti-LRP-1 (Abcam) antibodies, and after washing incubated for 1 hour with the appropriate Alexa Fluor-labelled secondary antibody (Invitrogen Molecular Probes). Cells and cryosections were analyzed by confocal laser-Scanning microscopy was performed using a TCS SP5 confocal microscope (Leica Microsystems)."}, "ITLN-1": {"target": "T1, ITLN-1 (Mus musculus, UniProt O88310)", "T1 construct": "ITLN-1 siRNA versus control siRNA", "T1 sequence (O88310 19-298)": "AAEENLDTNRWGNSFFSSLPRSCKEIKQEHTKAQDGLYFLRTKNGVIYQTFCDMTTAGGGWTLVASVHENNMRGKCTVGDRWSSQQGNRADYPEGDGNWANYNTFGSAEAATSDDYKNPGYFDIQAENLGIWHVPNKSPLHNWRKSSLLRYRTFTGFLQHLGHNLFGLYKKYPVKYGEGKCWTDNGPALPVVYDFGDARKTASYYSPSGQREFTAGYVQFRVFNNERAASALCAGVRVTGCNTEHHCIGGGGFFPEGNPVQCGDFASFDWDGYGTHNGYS", "experiment": "Uptake by mGEnC after downregulation of ITLN-1 with siRNA", "type": "cell-based", "conditions": "peptides at 5 μM, FIG. 2E", "experimental": "as §2"}, "mGEnC": {"system": "mGEnC", "experiment": "Uptake in multiple cell lines (Table 2): mGEnC", "type": "cell-based", "conditions": "fluorescein-labeled peptide, confocal microscopy, mGEnC (mouse)", "experimental": "as §1\nas §2, with “Subsequently, cells and cryosections were stained for 1 hour with anti-intelectin-1 (R&D Systems) or anti-LRP-1 (Abcam) antibodies, and after washing incubated for 1 hour with the appropriate Alexa Fluor-labelled secondary antibody (Invitrogen Molecular Probes).” left out"}, "hGEnC": {"system": "hGEnC", "experiment": "Uptake in multiple cell lines (Table 2): hGEnC", "type": "cell-based", "conditions": "fluorescein-labeled peptide, confocal microscopy, hGEnC (human)"}, "EOMA": {"system": "EOMA", "experiment": "Uptake in multiple cell lines (Table 2): EOMA", "type": "cell-based", "conditions": "fluorescein-labeled peptide, confocal microscopy, EOMA (mouse)"}, "HUVEC": {"system": "HUVEC", "experiment": "Uptake in multiple cell lines (Table 2): HUVEC", "type": "cell-based", "conditions": "fluorescein-labeled peptide, confocal microscopy, HUVEC (human)"}, "Podocytes": {"system": "Podocytes", "experiment": "Uptake in multiple cell lines (Table 2): Podocytes", "type": "cell-based", "conditions": "fluorescein-labeled peptide, confocal microscopy, Podocytes (mouse)", "experimental": "as §1\nas §2, with “Subsequently, cells and cryosections were stained for 1 hour with anti-intelectin-1 (R&D Systems) or anti-LRP-1 (Abcam) antibodies, and after washing incubated for 1 hour with the appropriate Alexa Fluor-labelled secondary antibody (Invitrogen Molecular Probes).” left out"}, "HeLa": {"system": "HeLa", "experiment": "Uptake in multiple cell lines (Table 2): HeLa", "type": "cell-based", "conditions": "fluorescein-labeled peptide, confocal microscopy, HeLa (human)", "experimental": "as §1\nas §2, with “Subsequently, cells and cryosections were stained for 1 hour with anti-intelectin-1 (R&D Systems) or anti-LRP-1 (Abcam) antibodies, and after washing incubated for 1 hour with the appropriate Alexa Fluor-labelled secondary antibody (Invitrogen Molecular Probes).” left out"}, "[2]": {"experiment": "Biodistribution of Cy5.5-hLF in LPS-induced inflammation mouse model", "type": "in vivo, C57BI/6 mice", "conditions": "for organ with highest signal: LPS-treated and non-treated mice; for localization in the glomeruli: kidney of LPS-treated mice", "experimental": "At the start, 8- to 10-week-old C57BI/6 mice (Charles River) received an intraperitoneal injection with either 100 μl of 2 mg/kg LPS in 5% glucose solution, or only 5% glucose solution. After 24 hours, mice were injected with 50 μl of 200 μM Cy5.5-labelled peptide. Assuming a blood volume of 1.2 ml this would theoretically result in a concentration of ~8.5 μM in the circulation. After 4 hours, organs were perfused with phosphate buffer, followed by 4% PFA. Organs were removed and peptide distribution was analysed using the In Vivo Imaging System (IVIS; Perkin Elmer). Organs were then fixed by overnight incubation in 4% PFA, followed by overnight incubation in 30% sucrose. Subsequently, organs were frozen for analysis by confocal laser-Scanning microscopy using a TCS SP5 confocal microscope (Leica Microsystems). Glomerular and tubular regions were selected in microscopical pictures from which the mean fluorescence intensity was determined by ImageJ software."}, "[3]": {"system": "mouse glomerular endothelial cells (mGEnC)", "experiment": "Uptake of fluorescein-labelled peptides by mGEnC (flow cytometry)", "type": "cell-based", "conditions": "different concentrations, 20 minutes at 37 °C, FIG. 1A", "experimental": "as §1"}, "[4]": {"system": "heparan sulphate on mGEnC", "experiment": "Peptide uptake by mGEnC after removal of heparan sulphate (heparinases)", "type": "cell-based, mouse", "conditions": "5 μM, FIG. 1D", "experimental": "(D) Digestion of heparan sulphate from the cell surface has a limited effect on the uptake of lactoferrin-derived peptides (5 μM). Percentage of uptake for heparan sulphate-cleaved compared to undigested cells is shown.\nas §1\nIn order to further substantiate that uptake of hLF occurred by a mechanism different of the one typically observed for CPPs, we addressed the role of heparan sulphate proteoglycans (HSPGs)."}, "[5]": {"experiment": "Biodistribution of full-length lactoferrin, lactoferricin and hLF-6 in LPS-challenged mice (IVIS)", "type": "in vivo", "conditions": "fluorescent label, i.v., 2 h", "experimental": "Lactoferrin and lactoferricin are cloned in an expression plasmid containing the C-terminal Sortase-sequence protein-LPETG-HHHHHH. LPETGHHHHHH is SEQ ID NO: 98. Next, the protein is expressed overnight in E. coli and purified from sonicated bacterial cell lysates by Ni-NTA beads using 400 mM imidazole to elute the proteins. After overnight dialysis, full-length lactoferrin and hLF-6 are labelled by means of a Sortase exchange reaction on the C-terminus with a fluorescent dye (Alexa647 or Cy5.5) for 2 h at 4 °C using a fluorescently labelled donor peptide (formula:biotin-GSSG-LPETG-label or biotin-GSSG-LPETG-PEG40k-label) as substrate GSSGLPETG is SEQ ID NO: 99. Excess donor peptide is removed by means of streptavidin binding of the biotin tag on the N-terminus of the donor peptide. Next, the purified labelled protein/peptide is injected into LPS-challenged mice via intravenous injection in the tail vein. Mice are sacrificed after 2 h, and organs harvested for imaging by IVIS. Biodistribution is quantified for each organ, and relative distribution is shown."}}, "note": "Residues, ends and D or L forms follow the SMILES beside them. *: point of attachment. DOTA = O=C(O)CN1CCN(CC(=O)O)CCN(CC(=O)*)CCN(CC(=O)O)CC1"}
{"molecule": "CC(C)[C@H](NC(=O)[C@H](CCCCN)NC(=O)[C@H](CCCNC(=N)N)NC(=O)CN1CCN(CC(=O)O)CCN(CC(=O)O)CCN(CC(=O)O)CC1)C(=O)N[C@@H](CCCNC(=N)N)C(=O)NCC(=O)N1CCC[C@H]1C(=O)N1CCC[C@H]1C(N)=O", "note": "[^111In-DOTA-hLF-7, ^111In-DOTA-RKVRGPP-NH2, metal not drawn] ({DOTA}-RKVRGPP-NH2)", "values": [{"measurement": "kidney/liver ratio (in words)", "setting": "[1]", "value": "still increased"}, {"measurement": "localization to the kidney", "setting": "[1]; FIG. 5", "value": "reduced distribution to the kidney"}, {"measurement": "localization to the liver and spleen", "setting": "[1]; FIG. 5", "value": "reduced distribution to the liver and spleen"}]}
{"molecule": "CC[C@H](C)[C@H](NC(=O)[C@H](CCCCN)NC(=O)[C@@H](NC(=O)[C@H](CCC(N)=O)NC(=O)[C@@H](N)CCCNC(=N)N)[C@@H](C)CC)C(=O)N[C@@H](Cc1c[nH]c2ccccc12)C(=O)N[C@@H](Cc1ccccc1)C(=O)N[C@@H](CCC(N)=O)C(=O)N[C@@H](CC(N)=O)C(=O)N[C@@H](CCCNC(=N)N)C(=O)N[C@@H](CCCNC(=N)N)C(=O)N[C@@H](CCSC)C(=O)N[C@@H](CCCCN)C(=O)N[C@@H](Cc1c[nH]c2ccccc12)C(=O)N[C@@H](CCCCN)C(=O)N[C@@H](CCCCN)C(N)=O", "note": "[penetratin, reference compound]", "values": [{"measurement": "uptake in HeLa cells", "setting": "HeLa cells", "value": "show uptake"}, {"measurement": "uptake after TNFα treatment by confocal microscopy", "setting": "mGEnC treated with TNFα", "value": "barely detectable"}, {"measurement": "increase of uptake after TNFα treatment", "setting": "mGEnC treated with TNFα; 5 μM, FIG. 1E", "value": "50-100%"}, {"measurement": "uptake after ITLN-1 siRNA compared to control siRNA", "setting": "ITLN-1", "value": "not affected"}, {"measurement": "Uptake (Table 2)", "setting": "mGEnC", "value": "Low"}, {"measurement": "Uptake (Table 2)", "setting": "hGEnC", "value": "Low"}, {"measurement": "Uptake (Table 2)", "setting": "EOMA", "value": "Low"}, {"measurement": "Uptake (Table 2)", "setting": "HUVEC", "value": "High"}, {"measurement": "Uptake (Table 2)", "setting": "Podocytes", "value": "High"}, {"measurement": "Uptake (Table 2)", "setting": "HeLa", "value": "High"}]}
{"molecule": "Cy5.5-KCFQWQRNMRKVRGPPVSCIKR-NH2 ({Cy5.5}-KCFQWQRNMRKVRGPPVSCIKR-NH2; cysteine pairing not given here) [Cy5.5-hLF]", "values": [{"measurement": "organ with highest signal", "setting": "[2]; IVIS", "value": "predominant distribution in kidney and liver"}, {"measurement": "organ with highest signal", "setting": "[2]; IVIS, listed as Cy5.5-labeled hLF", "value": "highest signal for the peptide was present in the kidneys, followed by the liver"}, {"measurement": "biodistribution to the kidney with LPS-induced inflammation", "setting": "[2]; IVIS, i.v., 4 hours, LPS-treated mice, FIG. 4A", "value": "increase biodistribution to the kidney"}, {"measurement": "urinary excretion (urine colour)", "setting": "[2]; all injected mice", "value": "Urine was coloured by excreted Cy5.5-labelled peptide in all mice"}, {"measurement": "fluorescence in liver, lung and spleen", "setting": "[2]; confocal microscopy, FIG. 4B", "value": "much lower fluorescence"}, {"measurement": "localization to the tubules, LPS-treated versus untreated", "setting": "[2]; confocal microscopy, FIG. 4B", "value": "similar"}, {"measurement": "localization in the glomeruli", "setting": "[2]; confocal microscopy, FIG. 4B", "value": "in glomeruli only in LPS-treated mice"}, {"measurement": "localization in the glomeruli", "setting": "[2]; confocal microscopy, FIG. 4B, listed as Cy5.5-labeled hLF", "value": "clearly pronounced"}, {"measurement": "detection in the liver", "setting": "[2]; histology of cryosections", "value": "singular cells appeared weakly positive"}, {"measurement": "detection in the spleen", "setting": "[2]; histology of cryosections", "value": "could hardly be detected"}]}
{"molecule": "KCLRWQNEMRKVGGPPLSCIKR [mLF, mouse variant of hLF]", "values": [{"measurement": "uptake in mGEnC", "setting": "[3]", "value": "uptake occurred similarly to hLF"}, {"measurement": "uptake in HeLa cells", "setting": "HeLa cells", "value": "only a minimal uptake and not"}, {"measurement": "decrease in uptake after removal of heparan sulphate", "setting": "[4]", "value": "~ 20%"}, {"measurement": "effect of TNFα treatment on uptake", "setting": "mGEnC treated with TNFα", "value": "increased uptake"}, {"measurement": "uptake after ITLN-1 siRNA compared to control siRNA", "setting": "ITLN-1", "value": "reduced uptake"}, {"measurement": "Uptake (Table 2)", "setting": "mGEnC", "value": "High"}, {"measurement": "Uptake (Table 2)", "setting": "hGEnC", "value": "High"}, {"measurement": "Uptake (Table 2)", "setting": "EOMA", "value": "High"}, {"measurement": "Uptake (Table 2)", "setting": "HUVEC", "value": "High"}, {"measurement": "Uptake (Table 2)", "setting": "Podocytes", "value": "High"}, {"measurement": "Uptake (Table 2)", "setting": "HeLa", "value": "Low"}]}
{"molecule": "RKVRGPPVSCIKRDS [hLF-6]", "values": [{"measurement": "accumulation in the kidney compared to lactoferrin and lactoferricin", "setting": "[5]", "value": "significantly greater accumulation in the kidney"}]}
{"molecule": "transferrin: Alexa Fluor 633-labeled transferrin, marker for clathrin-mediated endocytosis [reference compound]", "values": [{"measurement": "effect of TNFα treatment on uptake", "setting": "mGEnC treated with TNFα", "value": "not significantly affected"}, {"measurement": "uptake after ITLN-1 siRNA compared to control siRNA", "setting": "ITLN-1", "value": "not affected"}]}
